Source: patent EP4800012A1, “COMPOUND ACTING AS PARP7 INHIBITOR” (Dovetree Medicines Unus, Inc., priority 2023, dated 2025)

Experiments:
[1] = target: T1, PARP7 (Homo sapiens, UniProt Q7Z3E1); test: Inhibition of the compound on PARP7 protein activity (ADP-ribosylation, chemiluminescence); type: biochemical; details: Histone H1 coated plate, Biotin-Labeled NAD+, 2 h at room temperature, chemiluminescence; read-out: PARP7 activity inhibition IC50
T1 construct: purchased BPS 80527
T1 sequence (Q7Z3E1 1-657): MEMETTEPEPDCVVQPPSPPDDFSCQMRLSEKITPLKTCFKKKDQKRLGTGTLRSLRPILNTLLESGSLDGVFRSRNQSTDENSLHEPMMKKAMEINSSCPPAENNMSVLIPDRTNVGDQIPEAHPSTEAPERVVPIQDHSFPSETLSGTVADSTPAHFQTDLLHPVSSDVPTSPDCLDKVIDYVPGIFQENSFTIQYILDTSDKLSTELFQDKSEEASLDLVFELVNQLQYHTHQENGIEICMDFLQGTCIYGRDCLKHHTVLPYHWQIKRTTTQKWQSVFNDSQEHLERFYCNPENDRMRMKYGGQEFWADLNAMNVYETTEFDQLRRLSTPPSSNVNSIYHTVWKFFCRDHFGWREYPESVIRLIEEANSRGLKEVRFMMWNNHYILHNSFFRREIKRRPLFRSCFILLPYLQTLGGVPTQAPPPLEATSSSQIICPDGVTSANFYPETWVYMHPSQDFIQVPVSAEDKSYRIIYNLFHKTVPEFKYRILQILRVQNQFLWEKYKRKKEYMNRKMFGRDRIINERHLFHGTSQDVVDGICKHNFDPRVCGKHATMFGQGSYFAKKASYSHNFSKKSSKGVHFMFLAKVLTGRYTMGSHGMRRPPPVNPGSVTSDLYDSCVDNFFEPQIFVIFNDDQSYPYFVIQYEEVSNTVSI

[2] = test system: NCI-H1373 cells; test: Inhibition on NCI-H1373 cell proliferation (Cell-Titer-Glo); type: cell-based; details: Homo sapiens, 144 h; NCI-H1373 cells, incubation for 6 days, Cell-Titer-Glo; read-out: NCI-H1373 cell proliferation inhibition IC50
Method: The inhibitory effect of the compound on PARP7 was evaluated by testing the inhibitory effect of the compound on NCI-H1373 cell proliferation.
NCI-H1373 cells (ATCC, CRL-5866) were cultured in a complete medium, namely, a RPMI-1640 medium (Gibco, 22400089) containing 10% fetal bovine serum (Corning, 35-081-CV).
Negative control wells and positive control wells were added with 50 nL DMSO (Sigma, D2650), respectively.
In "Day 0" detection plate, NCI-H1373 cells were seeded at a density of 600 cells/well (50 µL) in a complete medium into the Day 0 test wells of a 384-well detection plate (Grenier, 781091). Then, 25 µL of Cell-Titer-Glo reagent (Promega, G7573) was added to each well, followed by centrifugation at 1000 rpm at room temperature for 1 minute and incubation at room temperature under shaded conditions for 10 min. Chemiluminescence signals were collected using an Envision (Perkin Elmer, EnVision 2105) to obtain the average value of the Day 0 test values.
In "compound detection plate", NCI-H1373 cells were seeded at a density of 600 cells/well (50 µL) in a complete medium into the negative control wells and the compound detection wells of a 384-well detection plate (Grenier, 781091), and 50 µL of cell culture medium was added to the positive control wells, followed by centrifugation at 1000 rpm at room temperature for 1 minute and placing in a cell incubator at 37°C, 5% CO2 for incubation for 6 days. […] Chemiluminescence signals were collected using an Envision (Perkin Elmer, EnVision 2105). The test values for each compound well, negative control well, and positive control well were obtained.
The proliferation inhibition ratio formula is as follows: [formula]
The average value of the negative control = the average value of the Day 6 test values of each negative control well minus the average value of the Day 0 test values
The average value of the positive control = the average value of the Day 6 test values of each positive control well
The average value of the compound test = (the Day 6 test value of compound test well 1 + the Day 6 test value of compound test well 2)/2 - the average value of the Day 0 test values

[3] = target: T1, PARP7; test: PARP7 TR-FRET binding inhibition (displacement of probe RBN011147); details: TR-FRET, Biotin-labeled probe RBN011147; read-out: PARP7 binding inhibition IC50
Method: The ability of the compound to substitute the probe RBN011147 (Wigle et al., 2020, Cell Chemical Biology 27, 877-887) was tested by a TR-FRET method, and IC50 was calculated to evaluate the binding ability of the compound to PARP7. […]

SMILES	IC50 [1] [µM]	IC50 [2] [µM]	IC50 [3] [µM]
CC(CCCNC(=O)c1ccc(-c2cc(C(F)(F)F)sn2)cc1F)Nc1cn[nH]c(=O)c1C(F)(F)F (stereo not drawn) [Example 212]	< 0.003	< 0.3	< 0.01
Cc1cnc(-c2cnc(C(=O)NCCCC(C)Nc3cc[nH]c(=O)c3C(F)(F)F)cn2)s1 (stereo not drawn) [Example 30]	0.003 to 0.01	> 3	0.03 to 0.1
CC(CCCNC(=O)c1ccc(-c2cc(C(F)(F)F)on2)cc1)Nc1cn[nH]c(=O)c1C(F)(F)F (stereo not drawn) [Example 79]	0.003 to 0.01	> 3	< 0.01
CC(CCCNC(=O)c1ccc(-n2cccn2)c(F)c1)Nc1cn[nH]c(=O)c1C(F)(F)F (stereo not drawn) [Example 62]	0.03 to 0.1	> 3	0.03 to 0.1
CC(CCCNC(=O)c1ccc(-c2ncc(C#N)cc2F)cc1)Nc1cn[nH]c(=O)c1C(F)(F)F (stereo not drawn) [Example 67]	< 0.003	0.3 to 1	< 0.01
CC(CCCNC(=O)c1ccc(-c2ncc(N(C)C3CC3)s2)cc1)Nc1cn[nH]c(=O)c1C(F)(F)F (stereo not drawn) [Example 56]	< 0.003	0.3 to 1	< 0.01
Cc1c(CCC(=O)Nc2ccc(-c3ncc(C(F)(F)F)cn3)cc2F)c[nH]c(=O)c1C(F)(F)F [Example 53]	0.01 to 0.03	> 3	0.03 to 0.1
CC(CCCNC(=O)c1ncc(-c2ncc(N3CC(F)C3)cn2)cc1F)Nc1cn[nH]c(=O)c1C(F)(F)F (stereo not drawn) [Example 72]	< 0.003	0.3 to 1	< 0.01
CC(CCCNC(=O)c1ccc(-c2ncc(N(C)C)cn2)cc1)Nc1cn[nH]c(=O)c1C(F)(F)F (stereo not drawn) [Example 63]	< 0.003	< 0.3	< 0.01
CC(CCCNC(=O)c1cnc(-c2ncc(C(F)(F)F)cn2)cn1)Oc1cn[nH]c(=O)c1C(F)(F)F (stereo not drawn) [Example 51]	< 0.003	< 0.3	0.03 to 0.1
CC(CCCNC(=O)c1ccc(-c2nnc(C(F)(F)F)s2)cc1)Nc1cn[nH]c(=O)c1C(F)(F)F (stereo not drawn) [Example 82]	0.003 to 0.01	> 3	0.03 to 0.1
CC(CCCNC(=O)c1ccc(-c2ncc(C(F)(F)F)s2)cn1)Nc1cn[nH]c(=O)c1C(F)(F)F (stereo not drawn) [Example 209]	< 0.003	< 0.3	0.01 to 0.03
Cc1c(CCC(=O)Nc2ncc(-c3ncc(C(F)(F)F)cn3)cc2F)c[nH]c(=O)c1C(F)(F)F [Example 76]	0.003 to 0.01	> 3	0.01 to 0.03
Cc1cc(-c2ccc(C(=O)NCCCC(C)Nc3cn[nH]c(=O)c3C(F)(F)F)cc2)ncc1C#N (stereo not drawn) [Example 68]	< 0.003	0.3 to 1	< 0.01
CC(CCCNC(=O)c1ccc(-c2cscn2)cc1F)Nc1cn[nH]c(=O)c1C(F)(F)F (stereo not drawn) [Example 179]	< 0.003	> 3	0.01 to 0.03
CC(CCNC(=O)c1cccc2c1[nH]c(=O)n2-c1ncc(C(F)(F)F)cn1)Nc1cn[nH]c(=O)c1C(F)(F)F (stereo not drawn) [Example 6]	0.01 to 0.03	> 3	0.03 to 0.1
CC(CCCNC(=O)c1cnc(-c2ncc(C(F)(F)F)s2)c(F)c1)Nc1cn[nH]c(=O)c1C(F)(F)F (stereo not drawn) [Example 184]	< 0.003	0.3 to 1	< 0.01
CC(CCCNC(=O)c1ccc(-c2ncc(C(F)(F)F)cn2)cc1)Nc1cn[nH]c(=O)c1C(F)(F)F (stereo not drawn) [Example 3]	< 0.003	0.3 to 1	< 0.01
CC(CCCNC(=O)c1ccc(-n2cc(C(F)(F)F)cn2)nc1)Nc1cn[nH]c(=O)c1C(F)(F)F (stereo not drawn) [Example 206]	< 0.003	1 to 3	< 0.01

SMILES	IC50 [1] [µM]	IC50 [2] [µM]	IC50 [3] [µM]
CC(CCCNC(=O)c1ccc(-c2ncc(C(F)(F)F)cn2)cc1F)Nc1cn[nH]c(=O)c1C(F)(F)F (stereo not drawn) [Example 2]	< 0.003	0.3 to 1	< 0.01
CC(CCCNC(=O)c1ccc(-c2noc(C3CC3)n2)cc1)Nc1cn[nH]c(=O)c1C(F)(F)F (stereo not drawn) [Example 186]	< 0.003	1 to 3	0.01 to 0.03
CC(CCCNC(=O)c1ccc(-c2cc(C(F)(F)F)sn2)nc1)Nc1cn[nH]c(=O)c1C(F)(F)F (stereo not drawn) [Example 207]	< 0.003	1 to 3	0.01 to 0.03
CC(CCCNC(=O)c1ccc(-c2ncc(C(F)F)s2)cn1)Nc1cn[nH]c(=O)c1C(F)(F)F (stereo not drawn) [Example 23]	< 0.003	0.3 to 1	0.01 to 0.03
CC(CCCNC(=O)c1cnc(-n2cc(C(F)(F)F)cn2)cn1)Nc1cn[nH]c(=O)c1C(F)(F)F (stereo not drawn) [Example 175]	< 0.003	0.3 to 1	0.01 to 0.03
CC(CCCNC(=O)c1ccc(-c2nc(C(F)(F)F)no2)cc1)Nc1cn[nH]c(=O)c1C(F)(F)F (stereo not drawn) [Example 78]	0.003 to 0.01	> 3	0.01 to 0.03
CC(CCCNC(=O)c1ccc(-c2ncc(CC3CC3)s2)cc1)Nc1cn[nH]c(=O)c1C(F)(F)F (stereo not drawn) [Example 44]	< 0.003	1 to 3	< 0.01
CC(CCCNC(=O)c1ccc(-c2cscn2)nc1)Nc1cn[nH]c(=O)c1C(F)(F)F (stereo not drawn) [Example 60]	< 0.003	0.3 to 1	< 0.01
CC(CCCNC(=O)c1ccc(-c2ncc(N3CCCCC3)s2)cc1)Nc1cn[nH]c(=O)c1C(F)(F)F (stereo not drawn) [Example 58]	0.003 to 0.01	> 3	< 0.01
CC(CCCNC(=O)c1ccc(-c2ncc(C(F)(F)F)s2)nc1)Nc1cn[nH]c(=O)c1C(F)(F)F (stereo not drawn) [Example 211]	< 0.003	1 to 3	< 0.01
CC(CCCNC(=O)c1ccc(-c2ncc(N3CC(F)C3)cn2)cc1)Nc1cn[nH]c(=O)c1C(F)(F)F (stereo not drawn) [Example 20]	< 0.003	1 to 3	< 0.01
CC(CCCNC(=O)c1cnn(-c2ncc(C(F)(F)F)cn2)c1)Nc1cn[nH]c(=O)c1C(F)(F)F (stereo not drawn) [Example 38]	< 0.003	> 3	< 0.01
CC(CCCNC(=O)c1ccc(-c2cc(C(F)(F)F)n(C)n2)cc1)Nc1cn[nH]c(=O)c1C(F)(F)F (stereo not drawn) [Example 185]	< 0.003	0.3 to 1	0.03 to 0.1
CC(CCCNC(=O)c1ccc(-c2ncc(C3CC3)s2)cc1)Nc1cn[nH]c(=O)c1C(F)(F)F (stereo not drawn) [Example 19]	< 0.003	0.3 to 1	< 0.01
CC(CCCNC(=O)c1ccc(-c2ncc(C(F)F)s2)cn1)Nc1cc[nH]c(=O)c1C(F)(F)F (stereo not drawn) [Example 29]	< 0.003	> 3	0.01 to 0.03
COc1cnc(-c2ccc(C(=O)NCCCC(C)Nc3cc[nH]c(=O)c3C(F)(F)F)c(F)c2)s1 (stereo not drawn) [Example 27]	< 0.003	> 3	0.01 to 0.03
CC(CCCNC(=O)c1ccc(-c2ncc(C3CCCC3)s2)cc1)Nc1cn[nH]c(=O)c1C(F)(F)F (stereo not drawn) [Example 155]	< 0.003	1 to 3	0.01 to 0.03
CC(CCCNC(=O)c1ccc(-c2cc(-c3cccnc3)sn2)cc1)Nc1cn[nH]c(=O)c1C(F)(F)F (stereo not drawn) [Example 18]	< 0.003	0.3 to 1	< 0.01
Cc1cc(NC(C)CCCN(C)C(=O)c2cnc(-c3ncc(C(F)(F)F)cn3)cn2)c(C#N)c(=O)[nH]1 (stereo not drawn) [Example 34]	0.03 to 0.1	> 3	> 0.1
